This passage reports IC50 results from ChEMBL document CHEMBL5244223, “l,8-Naphthalimide based DNA intercalators and anticancer agents. A systematic review from 2007 to 2017” (Eur J Med Chem, 2018).

Common to all, as to assay type: functional, cell-based
Test [1] has as its system SMMC-7721. Put plainly: Antiproliferative activity against human SMMC-7721 cells assessed as inhibition of cell proliferation incubated for 48 hrs by MTT assay. The conditions noted are these: SMMC-7721, 48 h. In general terms: Tetrazolium dyes change colour on reduction, which living cells bring about.
Test [2] has as its system HepG2. Put plainly: Antiproliferative activity against human HepG2 cells assessed as inhibition of cell proliferation incubated for 48 hrs by MTT assay. Conditions: HepG2, 48 h.
Test [3] has as its system MDA-MB-231. The experiment in a line: Antiproliferative activity against human MDA-MB-231 cells assessed as inhibition of cell proliferation incubated for 48 hrs by MTT assay. Conditions: MDA-MB-231, 48 h.
Test [4] concerns HeLa. The experiment in a line: Cytotoxicity against human HeLa cells assessed as inhibition of cell growth incubated for 48 hrs by MTT assay.
For test [5], the system named is A549. The experiment in a line: Cytotoxicity against human A549 cells assessed as inhibition of cell growth incubated for 48 hrs by MTT assay. The conditions noted are these: A549, 48 h.
Test [6] relates to K562. The experiment in a line: Antiproliferative activity against human K562 cells assessed as inhibition of cell proliferation incubated for 48 hrs by MTT assay. The conditions noted are these: K562, 48 h.
The test system of test [7] is HCT-116. Put plainly: Antiproliferative activity against human HCT-116 cells assessed as inhibition of cell proliferation incubated for 48 hrs by MTT assay. Conditions: HCT-116, 48 h.

Turning to `NCCCNCCCN1C(=O)c2cccc3cccc(c23)C1=O`, the IC50 in test [1] and in test [2] was 1.61 µM throughout.

With `CN(C)CCN1C(=O)c2cccc3c2c(cc2c(=O)[nH]cnc23)C1=O`, the concentration for half-maximal inhibition (IC50) in test [1], in test [3] and in test [2] was 2.64 µM in each case.

For the compound `NCCCNCCCN1C(=O)c2cccc3c2c(cc2c(=O)[nH]cnc23)C1=O`, the 50% inhibitory concentration (IC50) in test [1], in test [3] and in test [2] was 2.64 µM in each case.

For the compound `CN(C)CCN1C(=O)c2cccc3c(-n4nc(C(F)(F)F)cc4-c4ccccc4)ccc(c23)C1=O`, the concentration for half-maximal inhibition (IC50) in test [4] and in test [5] was 5.06 µM in each case.

As for `CCCOc1cccc(-c2cc(C(F)(F)F)nn2-c2ccc3c4c(cccc24)C(=O)N(CCN(C)C)C3=O)c1`, the IC50 in test [4] and in test [5] was 5.06 µM each time.

`CCCCOc1ccccc1-c1cc(C(F)(F)F)nn1-c1ccc2c3c(cccc13)C(=O)N(CCN(C)C)C2=O`: the IC50 in test [4] and in test [5] was 5.06 µM in each case.

As for `NCCCCN1C(=O)c2cccc3c2c(cc2c(=O)[nH]cnc23)C1=O`, the IC50 in test [1], in test [3] and in test [2] was 2.64 µM in each case.

As to `CCOc1cccc(-c2cc(C(F)(F)F)nn2-c2ccc3c4c(cccc24)C(=O)N(CCN(C)C)C3=O)c1`, the IC50 in test [4] and in test [5] was 5.06 µM in each case.

Consider `CCCCOc1cccc(-c2cc(C(F)(F)F)nn2-c2ccc3c4c(cccc24)C(=O)N(CCN(C)C)C3=O)c1`, for which the IC50 in test [4] and in test [5] was 5.06 µM in each case.

`CCCCOc1ccc(-c2cc(C(F)(F)F)nn2-c2ccc3c4c(cccc24)C(=O)N(CCN(C)C)C3=O)cc1`: the IC50 in test [4] and in test [5] was 5.06 µM in each case.

Take `COc1cc(-c2cc(C(F)(F)F)nn2-c2ccc3c4c(cccc24)C(=O)N(CCN(C)C)C3=O)cc(OC)c1OC`: the IC50 in test [4] and in test [5] was 5.06 µM throughout.

In the case of `CCCCCCCCCCCCCCOC(=O)c1ccc2c3c(cccc13)C(=O)N(CCN(C)C)C2=O`, the concentration for half-maximal inhibition (IC50) in test [6], in test [1], in test [7] and in test [2] was > 50 µM in each case.

On to `CN(C)CCN1C(=O)c2cccc3c2c(cc2c(NCCCCN)ncnc23)C1=O`, for which the IC50 in test [1], in test [3] and in test [2] was 1.12 µM throughout.

On to `CCCCOc1cc(OCCCC)cc(-c2cc(C(F)(F)F)nn2-c2ccc3c4c(cccc24)C(=O)N(CCN(C)C)C3=O)c1`, for which the IC50 in test [4] and in test [5] was 5.06 µM in each case.

Turning to `CN(C)CCN1C(=O)c2cccc3c2c(cc2c(NCCCNCCCN)ncnc23)C1=O`, the concentration for half-maximal inhibition (IC50) in test [1], in test [3] and in test [2] was 1.57 µM each time.

For `CCOc1ccccc1-c1cc(C(F)(F)F)nn1-c1ccc2c3c(cccc13)C(=O)N(CCN(C)C)C2=O`, the IC50 in test [4] and in test [5] was 5.06 µM in each case.

On to `COC(=O)c1ccc2c3c(cccc13)C(=O)N(CCN(C)C)C2=O`, for which the IC50 was > 50 µM in test [6], 22.1 µM in test [1], > 50 µM in test [7] and 22.1 µM in test [2].

As for `Cc1ccc(-c2cc(C(F)(F)F)nn2-c2ccc3c4c(cccc24)C(=O)N(CCN(C)C)C3=O)cc1`, the IC50 in test [4] and in test [5] was 5.06 µM each time.

In the case of `NCCCN1C(=O)c2cccc3cccc(c23)C1=O`, the IC50 in test [1] and in test [2] was 1.61 µM in each case.

Regarding `CCCCN1C(=O)c2cccc3c2c(cc2c(=O)[nH]cnc23)C1=O`, the half-maximal inhibitory concentration (IC50) in test [1], in test [3] and in test [2] was 2.64 µM in each case.

In the case of `COc1ccc(-c2cc(C(F)(F)F)nn2-c2ccc3c4c(cccc24)C(=O)N(CCN(C)C)C3=O)cc1`, the half-inhibitory concentration (IC50) in test [4] and in test [5] was 5.06 µM in each case.

Turning to `CN(C)CCN1C(=O)c2cccc3c2c(cc2c(NCCCN4CCOCC4)ncnc23)C1=O`, the IC50 in test [1], in test [3] and in test [2] was 1.12 µM in each case.

For `CN(C)CCN1C(=O)c2cccc3c2c(cc2c(NCCCCN4CCCC4)ncnc23)C1=O`, the IC50 in test [1], in test [3] and in test [2] was 1.12 µM each time.

For the compound `COc1ccc(-c2cc(C(F)(F)F)nn2-c2ccc3c4c(cccc24)C(=O)N(CCN(C)C)C3=O)cc1OC`, the IC50 in test [4] and in test [5] was 5.06 µM in each case.

With `CCCOC(=O)c1ccc2c3c(cccc13)C(=O)N(CCN(C)C)C2=O`, the 50% inhibitory concentration (IC50) in test [6], in test [1], in test [7] and in test [2] was > 50 µM each time.

Consider `CCOc1ccc(-c2cc(C(F)(F)F)nn2-c2ccc3c4c(cccc24)C(=O)N(CCN(C)C)C3=O)cc1`, for which the IC50 in test [4] and in test [5] was 5.06 µM in each case.

Consider `COc1ccccc1-c1cc(C(F)(F)F)nn1-c1ccc2c3c(cccc13)C(=O)N(CCN(C)C)C2=O`, for which the IC50 in test [4] and in test [5] was 5.06 µM throughout.

With `O=C1c2cccc3c2c(cc2c(=O)[nH]cnc23)C(=O)N1CCCCN1CCOCC1`, the IC50 in test [1], in test [3] and in test [2] was 2.64 µM in each case.

Take `CCOC(=O)c1ccc2c3c(cccc13)C(=O)N(CCN(C)C)C2=O`: the IC50 in test [6] is > 50 µM; in test [1], 13.7 µM; in test [7], > 50 µM; in test [2], 25.9 µM.

In the case of `CCCOc1cc(OCCC)cc(-c2cc(C(F)(F)F)nn2-c2ccc3c4c(cccc24)C(=O)N(CCN(C)C)C3=O)c1`, the IC50 in test [4] and in test [5] was 5.06 µM throughout.

For `COc1cc(OC)cc(-c2cc(C(F)(F)F)nn2-c2ccc3c4c(cccc24)C(=O)N(CCN(C)C)C3=O)c1`, the IC50 in test [4] and in test [5] was 5.06 µM each time.

As to `CCCOc1ccccc1-c1cc(C(F)(F)F)nn1-c1ccc2c3c(cccc13)C(=O)N(CCN(C)C)C2=O`, the IC50 in test [4] and in test [5] was 5.06 µM throughout.

`CCOc1cc(OCC)cc(-c2cc(C(F)(F)F)nn2-c2ccc3c4c(cccc24)C(=O)N(CCN(C)C)C3=O)c1`: the IC50 in test [4] and in test [5] was 5.06 µM each time.

For the compound `CCCOc1ccc(-c2cc(C(F)(F)F)nn2-c2ccc3c4c(cccc24)C(=O)N(CCN(C)C)C3=O)cc1`, the IC50 in test [4] and in test [5] was 5.06 µM each time.

For the compound `CCCCCCCCOC(=O)c1ccc2c3c(cccc13)C(=O)N(CCN(C)C)C2=O`, the concentration for half-maximal inhibition (IC50) in test [6], in test [1], in test [7] and in test [2] was > 50 µM throughout.

In the case of `CN(C)CCNc1ncnc2c1cc1c3c(cccc32)C(=O)N(CCN(C)C)C1=O`, the concentration for half-maximal inhibition (IC50) in test [1], in test [3] and in test [2] was 1.12 µM in each case.

Regarding `COc1cccc(-c2cc(C(F)(F)F)nn2-c2ccc3c4c(cccc24)C(=O)N(CCN(C)C)C3=O)c1`, the IC50 in test [4] and in test [5] was 5.06 µM each time.

In the case of `CCCCCOC(=O)c1ccc2c3c(cccc13)C(=O)N(CCN(C)C)C2=O`, the IC50 in test [6], in test [1], in test [7] and in test [2] was > 50 µM throughout.

As for `CCCCCCOC(=O)c1ccc2c3c(cccc13)C(=O)N(CCN(C)C)C2=O`, the IC50 in test [6], in test [1], in test [7] and in test [2] was > 50 µM throughout.

The IC50 is the midpoint of a concentration-inhibition curve.
